Legend:
human DHFR = conditions: read-out: Ki, human DHFR; ref Temple et al., 1982; cited from earlier work
[1] = tested on: L. major FV1 promastigotes WT/pXNG4-FTL; assay: Promastigote growth inhibition, WT/pXNG4-FTL line; type: cell-based; conditions: Leishmania major, read-out: EC50 growth
[2] = tested on: L. major FV1 promastigotes dhch1^−/pXNG4-FTL; assay: Promastigote growth inhibition, dhch1−/pXNG4-FTL line; type: cell-based; conditions: Leishmania major, read-out: EC50 growth
Leishmania DHFR-TS = Leishmania DHFR-TS (Leishmania major, UniProt P07382); assay: DHFR activity of the bifunctional L. major DHFR-TS; type: biochemical; conditions: 100 μM; data not shown
[3] = tested on: L. major FV1 promastigotes dhch1^−/pXNG4-DHCH1; assay: microbe, parasite or virus in culture; type: cell-based, Leishmania major; conditions: for EC50: Leishmania major, read-out: EC50 growth; for Resistance of DHCH1 or FTL overexpressors: DHCH1 or FTL overexpressors vs WT
FTL = conditions: 100 μM; ref Vickers et al., 2008; cited from earlier work
[4] = target: recombinant Leishmania DHCH1 (Leishmania major, UniProt Q4Q9F9); assay: Inhibition of dehydrogenase; type: biochemical; conditions: for Inhibition of L. major DHCH1: tested at 50 μM, data not shown
host cell (macrophages) = assay: Host cell toxicity in the amastigote/macrophage test; type: cell-based; conditions: macrophage host cells; preliminary studies, unpublished data
[5] = tested on: L. major FV1 promastigotes WT; assay: Promastigote growth inhibition, WT line; type: cell-based; conditions: Leishmania major, read-out: EC50 growth
[6] = tested on: L. major FV1 promastigotes WT/pXNG4-DHCH1; assay: Promastigote growth inhibition, WT/pXNG4-DHCH1 line; type: cell-based; conditions: Leishmania major, read-out: EC50 growth
[7] = target: T1, recombinant Leishmania major DHCH1 (Leishmania major, UniProt Q4Q9F9); assay: Kinetic constants of the dehydrogenase reaction of recombinant L. major DHCH1; type: biochemical; conditions: limit of detection 0.3 μmol min^−1 mg^−1; also with 5 mM (K+)PO4 and 5 mM MgCl2
T1 sequence (Q4Q9F9 1-298): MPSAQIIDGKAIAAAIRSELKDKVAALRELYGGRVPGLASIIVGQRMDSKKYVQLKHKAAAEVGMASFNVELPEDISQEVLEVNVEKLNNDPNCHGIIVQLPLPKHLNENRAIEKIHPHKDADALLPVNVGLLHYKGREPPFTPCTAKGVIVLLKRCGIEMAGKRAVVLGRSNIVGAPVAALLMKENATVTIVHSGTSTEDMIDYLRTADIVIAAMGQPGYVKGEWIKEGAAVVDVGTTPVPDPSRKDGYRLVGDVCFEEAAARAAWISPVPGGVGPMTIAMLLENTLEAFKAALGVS

Sequence of Leishmania DHFR-TS (P07382 whole entry): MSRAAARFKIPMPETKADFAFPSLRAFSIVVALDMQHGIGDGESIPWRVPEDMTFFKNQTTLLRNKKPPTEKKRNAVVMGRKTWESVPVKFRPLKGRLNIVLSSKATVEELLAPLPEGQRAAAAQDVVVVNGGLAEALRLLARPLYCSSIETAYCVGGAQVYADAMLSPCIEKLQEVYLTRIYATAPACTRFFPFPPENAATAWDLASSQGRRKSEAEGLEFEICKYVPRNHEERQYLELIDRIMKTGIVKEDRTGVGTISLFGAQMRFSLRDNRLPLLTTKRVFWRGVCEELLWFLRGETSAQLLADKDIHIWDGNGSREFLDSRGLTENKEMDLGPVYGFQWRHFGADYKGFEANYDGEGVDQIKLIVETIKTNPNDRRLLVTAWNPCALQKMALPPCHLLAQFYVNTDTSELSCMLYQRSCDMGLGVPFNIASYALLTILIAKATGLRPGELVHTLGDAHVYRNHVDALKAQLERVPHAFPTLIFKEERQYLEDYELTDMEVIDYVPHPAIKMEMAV

Structure (SMILES)	EC50 [2] [nM]	EC50 [3] [nM]	EC50 [5] [nM]	Inhibition of L. major DHCH1 [4]	Resistance of DHCH1 or FTL overexpressors [3]	further results
Nc1nc(O)c2c(n1)NC[C@@H]1CN(c3ccc(C(=O)N[C@@H](CCC(=O)O)C(=O)O)cc3)C(=O)N21 [5,10-CO-THF, (2S)-2-[[4-[(6aR)-3-amino-1,9-dioxo-5,6,6a,7-tetrahydro-4H-imidazo[3,4-f]pteridin-8-yl]benzoyl]amino]pentanedioic acid]	3300 ± 300	4500 ± 500	1100 ± 40			Ki (human DHFR): > 100000 nM; EC50 [1]: 3700 ± 500 nM; Inhibition of the activity of Leishmania DHFR-TS (Leishmania DHFR-TS): did not inhibit; Inhibition of the activity of FTL (FTL): did not inhibit; Ki [4]: 105 nM; Concentration above which host cell toxicity was seen (host cell (macrophages)): above 10 μM; EC50 [6]: 5100 ± 800 nM
CC(C)c1nc2nc(N)nc(N)c2nc1C(C)C [Compound 25, 2,4-Diamino-6,7-diisopropylpteridine]				not inhibited		
NC(=O)c1ccc[n+]([C@@H]2O[C@H](COP(=O)([O-])OP(=O)(O)OC[C@H]3O[C@@H](n4cnc5c(N)ncnc54)[C@H](O)[C@@H]3O)[C@@H](O)[C@H]2O)c1 [NAD^+]						Dehydrogenase activity with the coenzyme [7]: no activity detected
CN(Cc1cnc2nc(N)nc(N)c2n1)c1ccc(C(=O)N[C@@H](CCC(=O)O)C(=O)O)cc1 [Methotrexate]	40 ± 2	41 ± 2	36 ± 1	not inhibited	did not show resistance	
Nc1nc(N)c(CCCc2ccccc2)c(Cc2ccccc2)n1 [Compound 70, 2,4-diamino-6-benzyl-5-(3-phenylpropyl)-pyrimidine]	420 ± 40	400 ± 50	440 ± 50	not inhibited	did not show resistance	
Nc1nc(N)c2cc(Oc3ccc(Cl)c(Cl)c3)ccc2n1 [Compound 34, 2,4-diamino-6-(3,4-dichlorophenoxy)-quinazoline]	540 ± 60	760 ± 80	680 ± 90	not inhibited	did not show resistance	

— publication PMC2692627 (Molecular microbiology, 2009)
